Test results: PMC13243568, “Massive barcode-free chemical screenings enable the discovery of bioactive macrocycles with passive membrane permeability” (Nature Communications, 2026)
Entries after “also recorded” stand apart in the source; their conditions may differ. Starred links: 1 amine or outer side, 2 acyl side, 3 side chain; linkers in the order of their positions; H or OH if unused. Positions of bridges follow the written chain, without caps; N, C: chain ends. Non-standard residues stand in square brackets, D forms with d. Residues, ends and D or L forms follow the SMILES beside them. *: point of attachment. Phenylacetyl(3,4,5-triOMe) = COc1cc(CC(=O)*)cc(OC)c1OC; Biotin = O=C1N[C@H]2[C@H](CS[C@H]2CCCCC(=O)*)N1; Benzoyl(4-SO2NH2) = NS(=O)(=O)c1ccc(C(=O)*)cc1; Tyr(3-Cl) = N[C@@H](Cc1ccc(O)c(Cl)c1)C(=O)O; X1 = O=C([C@H]1CC[C@@H](N[*:1])C1)[*:2]; oXylylene = c1ccc(C[*:2])c(C[*:1])c1; εLys = N[C@@H](CCCCN[*:1])C(=O)[*:2]

Legend:
WDR5-MLL PPI = biological target: T1, WDR5-MLL PPI (Homo sapiens, UniProt P61964); test: BLI competition assay, displacement of immobilized MLL peptide 16 from WDR5; format: binding; settings: for Binding (ratio to control): Figure S11, BLI competition, control = WDR5 without inhibitor; for displacement of MLL peptide from WDR5: tested at 100 and 50 nM WDR5; for inhibition of WDR5-MLL interaction, in words: 100 nM inhibitor, MLL immobilized on BLI tips
T1 construct: A truncated human WDR5 construct encoding amino acids 22–; SUMO (N); made in house; host or cells: E. coli BL21 (DE3) (WDR5); the peptide was made by chemical synthesis
Experimental: Purified biotinylated competitors were dissolved in the appropriate kinetic buffer and immobilized onto the streptavidin biosensors at 100 nM for 60 s. Sensors were then dipped into the kinetic buffer for 60 s, and the concentration gradient of macrocyclic hit in a constant concentration protein solution for 600 s. Measurements were carried out at 20 °C. […]
was immobilized for 60 sec. at 100 nM. […]
were reincubated and association was measured for 600 sec. […]
Biolayer interferometry (BLI): Biolayer interferometry (BLI) assays were performed in 96 well plates (GreinerBio -One, polypropylene, flat ‐bottom, chimney well) using an Octet R4 system (SATORIUS).
Wells were filled with 200 μL with kinetic buffer, compound solution or protein solution , purifi ed compounds . Proteins were dissolved in the appropriate kinetic buffer specific for each target (CAIX:
Tween -20, 1 mg/mL BSA [0.1% w/v]). […]
Measurements were carried out at 20 °C.
Competition assay: Purified biotinylated competitor were dissolved in appropriate kinetic buffer and immobilized onto the streptavidin biosensors at 100nM for 60s. Sensors were then dipped into kinetic buffer for 60 s and concentration gradient of macrocyclic hit in constant concentration protein solution for 600s. Measurements were carried out at 20 °C.

[1] = Parallel artificial membrane permeability assay (PAMPA); format: in vitro ADME
Experimental: The plate system consisted of a 96-well microwell plate (donor wells) and a 96-well insert containing a PVDF membrane coated with tri-layers of phospholipids (acceptor wells). Permeability was measured from the bottom plate (donor wells) to the top insert (acceptor wells). Cyclic peptide or reference compound solutions were prepared at a concentration of 100 μM in 1xPBS buffer (pH 7.4) containing 1% DMSO, and 300 μl of the resulting solutions was placed into the donor wells of the PAMPA plate. Acceptor wells were prepared by adding 200 μl of PBS buffer (pH 7.4) containing 1% DMSO. The insert was stacked onto the donor plate, and the system was covered with a lid to avoid evaporation. […] Additionally, 3:2 dilutions of the 100 μM cyclic peptide stocks were prepared in 1xPBS buffer (pH 7.4) containing 1% DMSO to yield a sample corresponding to the theoretical equilibrium between donor and acceptor wells. The samples were run on the UPLC–HRMS to measure the cyclic peptide concentration representing maximum permeability. […]
Parallel artificial membrane permeability assay (PAMPA):
Permeability measurements
The insert was then stacked onto the donor […]
concentration of permeated peptides. To establish a reference for maximum permeability, 3:2 […]
the theoretical equilibrium between the donor and acceptor chambers. These equilibrium samples […]
Permeability (%) = [PeptideAcceptor ] (4)
P = VD×VA × −ln (1 − [PeptideAcceptor] ) (5) […]

MV-4:11 cells = test: Cell viability, CellTiter-Glo, MV-4:11; format: cell-based; settings: 72 h
Experimental: 5000 HL-60 (DSMZ ACC3), 3000 MV411 (DSMZ ACC554), and 7000 MOLM13 (DSMZ ACC554) cells were plated into an opaque-colored 96-well plate (Greiner Bio-One cat no 655083). […] About 100 μl CellTiter-Glo reagent was added to each well, and the plates were shaken for 5 min at 500 rpm. Luminescent signal was stabilized by incubating the plates for 10 min at RT. Luminescence was measured on the Victor X3 plate reader (Perkin Elmer).
were plated into an opaque colored 96 wells plate (Greiner Bio -one cat no 655083). Cells were plated
no G7570). 100 µl CellTiter-Glo reagent was added to each well and plates were shaken 5 minutes at 500 rpm. Luminescent signal was stabilized by incubating the plates 10 minutes at RT. Luminescence was measured on the Victor X3 plate reader (Perkin Elmer).

CAIX = biological target: T2, CAIX (Homo sapiens, UniProt Q16790); test: BLI direct binding assay against CAIX; settings: biotinylated hit immobilized on streptavidin sensor, CAIX in solution; curves did not reach saturation; read-out: kinetic KD (BLI)
T2 construct: Anhydrase IX (38-414), His,Avitag (CA9H82E3); His; Avitag (biotinylated); purchased ACROBiosystems CA9H82E3
Experimental: Biolayer interferometry (BLI) assays were performed in 96-well plates (GreinerBio-One, polypropylene, flat-bottom, chimney well) using an Octet R4 system (SATORIUS). Wells were filled with 200 μL of kinetic buffer, compound solution or protein solution, purified compounds. Proteins were dissolved in the appropriate kinetic buffer specific for each target (CAIX: 1× PBS, 0.02% Tween-20, 1 mg/mL BSA [0.1% w/v]; WDR5: 20 mM Tris, 500 mM NaCl, pH 8.0, 0.02% Tween-20, and 1 mg/mL BSA [0.1% w/v]).
Purified biotinylated compounds were dissolved in an appropriate kinetic buffer and immobilized onto the streptavidin biosensor for 60 s. Sensors were then dipped into the kinetic buffer for 60 s, a concentration gradient of protein solution for 300 s and into the kinetic buffer for 300 s. Measurements were carried out at 20 °C.
Table S2: ASMS buffer summary.
B Biotinylated CAIX (1.5 μM) in A Biotinylated WDR5 (1.5 μM) in A […]
μM d-biotin 0.02% Tween-20, 400 μM biotin
D 10% FBS, 1x PBS 20m mM Tris, 500 mM NaCl, pH 8, 10% FBS, E 10 fmol/member library in buffer D 10 fmol/member library in buffer D F 1x PBS 20m mM Tris, 500 mM NaCl, pH 8
G 6M Guanidine HCl, 200 mM phosphate 6M Guanidine HCl, 200 mM phosphate buffer, pH 6.8, 10 mM TCEP HCl buffer, pH 6.8, 10 mM TCEP HCl
Sample preparation after AS: Following the affinity selection, samples were desalted using StageTips. […]

[2] = Serum stability assay in 25% human serum; settings: pH 7.4
Experimental: The mixture was vortexed immediately after protein addition. […] After incubating on ice for 1 h, the samples were centrifuged at 10,000×g for 5 min. The supernatant was then injected into the UPLC–HRMS (20 μL) and the AUC of both peptide and IS calculated by analyzing the XIC curve for each exact mass value. For each run and timepoint, the peptide AUC was then normalized to the IS AUC.
vortexed immediately after protein addition. At different time points, a sample was retrieved and the
degradation reaction was quenched by the addition of 20% trichloroacetic acid (w/w) in 1x PBS
After incubating on ice for 1h , the samples were centrifuged at
10,000 rpms for 5 min. The supernatant was then injected into the UPLC -HRMS and the AUC of both
peptide and IS by analyzing the XIC curve for each exact mass value. For each run and timepoint, the peptide AUC was then normalized to the IS AUC . The relative stability values were then plotted using
Half -life times (t 1/2) were
calculated at the intersection of the curve with y=50%.

Q: With `COc1cc(CC(=O)N[C@H]2CSCc3ccccc3CSCCNC(=O)[C@H](Cc3c[nH]c4ccccc34)N(C)C(=O)[C@H](CCCNC(=N)N)NC(=O)[C@H]3CC[C@H](C3)NC2=O)cc(OC)c1OC` [s7] as the compound, how does the “Binding (ratio to control)” value (WDR5-MLL PPI) read?
A: Its value is 0.83.

Q: And the “passive permeability (PAMPA), in words” value ([1]; PAMPA)?
A: The value was “reduced permeability”.

Q: What does the source list for `COc1cc(CC(=O)N(C)[C@H]2CSCc3ccccc3CSCCNC(=O)[C@H](Cc3c[nH]c4ccccc34)NC(=O)[C@H](CCCNC(=N)N)NC(=O)[C@H]3CC[C@H](C3)NC2=O)cc(OC)c1OC` [s5]?
A: Binding (ratio to control) (WDR5-MLL PPI): 0.37; passive permeability (PAMPA), in words ([1]; PAMPA): reduced permeability

Q: For `N=C(N)NCCC[C@@H]1NC(=O)[C@H]2CC[C@H](C2)NC(=O)[C@@H](NC(=O)CCc2ccc(Br)cc2)CSCc2ccccc2CSCCNC(=O)[C@H](Cc2c[nH]c3ccccc23)NC1=O` [Compound 28], which “displacement of MLL peptide from WDR5” value (WDR5-MLL PPI) is on record?
A: The value was at least 50%.

Q: For `CC(=O)N[C@H]1CSSC[C@@H](C(N)=O)NC(=O)[C@H](Cc2c[nH]c3ccccc23)NC(=O)[C@H](CCCNC(=N)N)NC(=O)[C@H]2CC[C@H](C2)NC1=O` [Compound 15] (Ac-C[X1]RWC-NH2; disulfide 1-5; C-terminus assumed), which “inhibition of WDR5-MLL interaction, in words” value (WDR5-MLL PPI; WDR5 50 nM) is on record?
A: Its value is “reduced (yet not abolished) activity; also recorded: maintained partial inhibitory activity”.

Q: Which “displacement of MLL peptide from WDR5” value (WDR5-MLL PPI) does the source give for `CCCCCC(C)C(=O)N[C@H]1CSCc2ccccc2CSCCNC(=O)[C@H](Cc2c[nH]c3ccccc23)NC(=O)[C@H](CCCNC(=N)N)NC(=O)[C@H]2CC[C@H](C2)NC1=O` (stereo partly shown) [Compound 27] here?
A: The value was at least 50%.

Q: And the “permeability (PAMPA)” value ([1]; 100 µM, 18 h incubation, RT)?
A: The value was 72%.

Q: With `N=C(N)NCCC[C@@H]1NC(=O)[C@H]2CC[C@H](C2)NC(=O)[C@@H](NC(=O)Cc2ccccc2Br)CSCc2ccccc2CSCCNC(=O)[C@H](Cc2c[nH]c3ccccc23)NC1=O` [Compound 26] as the compound, how does the “displacement of MLL peptide from WDR5” value (WDR5-MLL PPI) read?
A: Its value is at least 50%.

Q: Which results are given for `COc1cc(CC(=O)N[C@H]2CSCc3ccccc3CSCCNC(=O)[C@H](Cc3c[nH]c4ccccc34)NC(=O)[C@H](CCCNC(=N)N)NC(=O)[C@H]3CC[C@H](C3)NC2=O)cc(OC)c1OC` [Compound 17Δ]?
A: inhibition of MV-4:11 cell proliferation, in words (MV-4:11 cells): did not inhibit cancer cell proliferation; Permeability (%) ([1]; PAMPA): 17.17%; permeability (PAMPA) ([1]; PAMPA): 16%

Q: With `N=C(N)NCCC[C@@H]1NC(=O)[C@H](Cc2ccc(O)c(Cl)c2)NC(=O)[C@H](CCCCN)NC(=O)[C@@H](NC(=O)c2ccc(S(N)(=O)=O)cc2)CSSC[C@@H](C(=O)N[C@@H](CCCCN)C(=O)NCCCC[C@H](N)C(=O)NCCCC[C@H](N)C(=O)N[C@@H](CCCCNC(=O)CCCC[C@@H]2SC[C@@H]3NC(=O)N[C@@H]32)C(N)=O)NC1=O` [Compound 7] ({Benzoyl(4-SO2NH2)}-CK[Tyr(3-Cl)]RCK[εLys][εLys]K(Biotin)-NH2; disulfide 1-5) as the compound, how does the Kd (CAIX) read?
A: The Kd was 1 nM.

Q: With `COc1cc(CC(=O)N[C@H]2CSCc3ccccc3CSC[C@@H](C(N)=O)NC(=O)[C@H](Cc3c[nH]c4ccccc34)NC(=O)[C@H](CCCNC(=N)N)NC(=O)[C@H]3CC[C@H](C3)NC2=O)cc(OC)c1OC` [Compound 17] ({Phenylacetyl(3,4,5-triOMe)}-C[X1]RWC-NH2; linker 1-5 via oXylylene; C-terminus assumed) as the compound, how does the “inhibition of WDR5-MLL interaction, in words” value (WDR5-MLL PPI; WDR5 50 nM) read?
A: The value was “retained strong inhibition potency”.

Q: Which “displacement of MLL peptide from WDR5” value (WDR5-MLL PPI) does the source give for `N=C(N)NCCC[C@@H]1NC(=O)[C@H]2CC[C@H](C2)NC(=O)[C@@H](NC(=O)c2ccc(Cl)s2)CSCc2ccccc2CSCCNC(=O)[C@H](Cc2c[nH]c3ccccc23)NC1=O` [Compound 25] here?
A: The value was at least 50%.

Q: What about the remaining at 24 h, 25 μM [2] of the same compound?
A: Its remaining at 24 h, 25 μM is over 50%.

Q: And the “permeability (PAMPA)” value ([1]; 100 µM, 18 h incubation, RT)?
A: Its value is 51%.

Q: Which “inhibition of WDR5-MLL interaction, in words” value (WDR5-MLL PPI; WDR5 50 nM) does the source give for `COc1cc(CC(=O)N[C@H]2CSSC[C@@H](C(N)=O)NC(=O)[C@H](Cc3c[nH]c4ccccc34)NC(=O)[C@H](CCCNC(=N)N)NC(=O)[C@H]3CC[C@H](C3)NC2=O)cc(OC)c1OC` [Compound 14] ({Phenylacetyl(3,4,5-triOMe)}-C[X1]RWC-NH2; disulfide 1-5; C-terminus assumed) here?
A: The value was “maintains full activity; also recorded: no association was detected; also recorded: comparable inhibitory potency”.

Q: What about the IC50 (WDR5-MLL PPI; 16 immobilized at 100 nM, WDR5 50 nM, lower detection limit 25 nM, read-out: IC50, inhibition of WDR5-MLL PPI (BLI competition)) of the same compound?
A: Its IC50 is under 25 nM.

Q: And the “permeability (PAMPA)” value ([1]; PAMPA)?
A: The value was under 1%.

Q: Which “permeability (PAMPA)” value ([1]; PAMPA) does the source give for `COc1cc(CC(=O)N[C@H]2CSCc3ccc(cc3)-c3ccc(cc3)CSCCNC(=O)[C@H](Cc3c[nH]c4ccccc34)NC(=O)[C@H](CCCNC(=N)N)NC(=O)[C@H]3CC[C@H](C3)NC2=O)cc(OC)c1OC` [Compound 20Δ] here?
A: The value was under 5%.

Q: With `COc1cc(CC(=O)N[C@H]2CSCc3ccc(cc3)CSCCNC(=O)[C@H](Cc3c[nH]c4ccccc34)NC(=O)[C@H](CCCNC(=N)N)NC(=O)[C@H]3CC[C@H](C3)NC2=O)cc(OC)c1OC` [Compound 19Δ] as the compound, how does the “permeability (PAMPA)” value ([1]; PAMPA) read?
A: The value was under 5%.

Q: Which “displacement of MLL peptide from WDR5” value (WDR5-MLL PPI) does the source give for `N=C(N)NCCC[C@@H]1NC(=O)[C@H]2CC[C@H](C2)NC(=O)[C@@H](NC(=O)Cc2cc(F)c(F)cc2F)CSCc2ccccc2CSCCNC(=O)[C@H](Cc2c[nH]c3ccccc23)NC1=O` [Compound 23] here?
A: Its value is at least 50%.

Q: And the “permeability (PAMPA)” value ([1]; 100 µM, 18 h incubation, RT)?
A: Its value is 45%.

Q: Which “permeability (PAMPA)” value ([1]; PAMPA) does the source give for `COc1cc(CC(=O)N[C@H]2CSCc3cccc(c3)CSCCNC(=O)[C@H](Cc3c[nH]c4ccccc34)NC(=O)[C@H](CCCNC(=N)N)NC(=O)[C@H]3CC[C@H](C3)NC2=O)cc(OC)c1OC` [Compound 18Δ] here?
A: Its value is 11%.
